What follows are compounds tested against T1, Cys12 of the KRAS 4B G12C protein (Homo sapiens, UniProt P01116, G12C) (assay: In vitro covalent adduct formation (CAF) assay, LC-MS intact mass). Conditions: 10 μM compound, after 1 hour.
T1 construct: This protein contained 188 amino acids in total, including an N-terminal 6-Histidine tag; made in house; host or cells: E. coli BL21
Format: binding
Method in brief: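 Percent covalent modification from intact-mass LC-MS, by relative free versus adducted protein (adducts within 1 Da of expected mass). Reaction: 10 μM compound with 5 μM E. coli-expressed, GDP-exchanged KRAS 4B G12C in TBS pH 7.4, 4% DMSO, 1 h at 22° C.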
In the case of C=CC(=O)N1C2COCC1CN(c1nc(=O)n3c4c(c(-c5cc(Cl)c(F)cc5F)c(C(F)(F)F)cc14)SC[C@@H](OC)C3)C2 [Example 1210, (3S)-8-(9-acryloyl-3-oxa-7,9-diazabicyclo[3.3.1]nonan-7-yl)-11-(5-chloro-2,4-difluorophenyl)-3-methoxy-10-(trifluoromethyl)-3,4-dihydro-2H,6H-[1,4]thiazepino[2,3,4-ij]quinazolin-6-one], the “CAF (% after 1 hour)” value is reported as 94%.
For C=CC(=O)N1CCN(c2nc(=O)n3c4c(c(-c5cc(Cl)c(F)cc5F)c(C(F)(F)F)cc24)SC[C@@H](OC)C3)[C@@H]2CS(=O)(=O)C[C@@H]21 [Example 1211, (3S)-8-((4aR,7aS)-4-acryloyl-6,6-dioxidohexahydrothieno[3,4-b]pyrazin-1(2H)-yl)-11-(5-chloro-2,4-difluorophenyl)-3-methoxy-10-(trifluoromethyl)-3,4-dihydro-2H,6H-[1,4]thiazepino[2,3,4-ij]quinazolin-6-one], the “CAF (% after 1 hour)” value was 97%.
For C=CC(=O)N1CCN(c2nc(=O)n3c4c(c(-c5cc(Cl)c(F)cc5F)c(C(F)(F)F)cc24)SC[C@@H](OC)C3)[C@@H]2CN(S(C)(=O)=O)C[C@@H]21 [Example 1212, (3S)-8-((4aS,7aR)-4-acryloyl-6-(methylsulfonyl)octahydro-1H-pyrrolo[3,4-b]pyrazin-1-yl)-11-(5-chloro-2,4-difluorophenyl)-3-methoxy-10-(trifluoromethyl)-3,4-dihydro-2H,6H-[1,4]thiazepino[2,3,4-ij]quinazolin-6-one], the “CAF (% after 1 hour)” value was 50%.
With C=CC(=O)N1CCN(c2nc(=O)n3c4c(c(-c5cc(Cl)c(F)cc5F)c(C(F)(F)F)cc24)SC[C@@H](OC)C3)[C@@H]2COC[C@@H]21 [Example 1213, (3S)-8-((4aR,7aS)-4-acryloylhexahydrofuro[3,4-b]pyrazin-1(2H)-yl)-11-(5-chloro-2,4-difluorophenyl)-3-methoxy-10-(trifluoromethyl)-3,4-dihydro-2H,6H-[1,4]thiazepino[2,3,4-ij]quinazolin-6-one] the “CAF (% after 1 hour)” value was 59%.
For C=CC(=O)N1CCN(c2nc(=O)n3c4c(c(-c5cc(Cl)c(F)cc5F)c(C(F)(F)F)cc24)SC[C@@H](OC)C3)[C@@H]2CSC[C@@H]21 [Example 1214, (3S)-8-((4aR,7aS)-4-acryloylhexahydrothieno[3,4-b]pyrazin-1(2H)-yl)-11-(5-chloro-2,4-difluorophenyl)-3-methoxy-10-(trifluoromethyl)-3,4-dihydro-2H,6H-[1,4]thiazepino[2,3,4-ij]quinazolin-6-one], the “CAF (% after 1 hour)” value was 49%.
For C=CC(=O)N1[C@H](C)CN(c2nc(=O)n3c4c(c(-c5cc(C(F)(F)F)ns5)c(C(F)(F)F)cc24)SC[C@@H](OC)C3)C[C@@H]1C [Example 1215, (S)-8-((3S,5R)-4-acryloyl-3,5-dimethylpiperazin-1-yl)-3-methoxy-10-(trifluoromethyl)-11-(3-(trifluoromethyl)isothiazol-5-yl)-3,4-dihydro-2H,6H-[1,4]thiazepino[2,3,4-ij]quinazolin-6-one], the “CAF (% after 1 hour)” value was 95%.
For C=CC(=O)N1[C@H](C)CN(c2nc(=O)n3c4c(c(-c5ncc(C(F)(F)F)s5)c(C(F)(F)F)cc24)SC[C@@H](OC)C3)C[C@@H]1C [Example 1216, (S)-8-((3S,5R)-4-acryloyl-3,5-dimethylpiperazin-1-yl)-3-methoxy-10-(trifluoromethyl)-11-(5-(trifluoromethyl)thiazol-2-yl)-3,4-dihydro-2H,6H-[1,4]thiazepino[2,3,4-ij]quinazolin-6-one], the “CAF (% after 1 hour)” value was 94%.
In the case of C=CC(=O)N1[C@H](C)CN(c2nc(=O)n3c4c(c(-c5ccc(F)cc5)c(C(F)(F)F)cc24)SC[C@@H](OCF)C3)C[C@@H]1C [Example 1217, (S)-8-((3S,5R)-4-acryloyl-3,5-dimethylpiperazin-1-yl)-3-(fluoromethoxy)-11-(4-fluorophenyl)-10-(trifluoromethyl)-3,4-dihydro-2H,6H-[1,4]thiazepino[2,3,4-ij]quinazolin-6-one], the “CAF (% after 1 hour)” value is reported as 95%.
For C=C(F)C(=O)N1[C@H](C)CN(c2nc(=O)n3c4c(c(-c5cc(Cl)c(F)cc5F)c(C(F)(F)F)cc24)SC[C@@H](OC)C3)C[C@@H]1C [Example 1218, (3S)-11-(5-Chloro-2,4-difluorophenyl)-8-((3S,5R)-4-(2-fluoroacryloyl)-3,5-dimethylpiperazin-1-yl)-3-methoxy-10-(trifluoromethyl)-3,4-dihydro-2H,6H-[1,4]thiazepino[2,3,4-ij]quinazolin-6-one], the “CAF (% after 1 hour)” value was 66%.
With C=C(F)C(=O)N1CCN(c2nc(=O)n3c4c(c(-c5cc(Cl)c(F)cc5F)c(C(F)(F)F)cc24)SC[C@@H](OC)C3)CC1 [Example 1219, (3S)-11-(5-Chloro-2,4-difluorophenyl)-8-(4-(2-fluoroacryloyl)piperazin-1-yl)-3-methoxy-10-(trifluoromethyl)-3,4-dihydro-2H,6H-[1,4]thiazepino[2,3,4-ij]quinazolin-6-one] the “CAF (% after 1 hour)” value was 64%.
C=C(F)C(=O)N1[C@H](C)CN(c2nc(=O)n3c4c(c(-c5ccc(F)cc5F)c(C(F)(F)F)cc24)SC[C@@H](OC)C3)C[C@@H]1C [Example 1220, (3S)-11-(2,4-Difluorophenyl)-8-((3S,5R)-4-(2-fluoroacryloyl)-3,5-dimethylpiperazin-1-yl)-3-methoxy-10-(trifluoromethyl)-3,4-dihydro-2H,6H-[1,4]thiazepino[2,3,4-ij]quinazolin-6-one] was tested, and the “CAF (% after 1 hour)” value was 67%.
With C=C(F)C(=O)N1CCN(c2nc(=O)n3c4c(c(-c5ccc(F)cc5F)c(C(F)(F)F)cc24)SC[C@@H](OC)C3)CC1 [Example 1221, (3S)-11-(2,4-Difluorophenyl)-8-(4-(2-fluoroacryloyl)piperazin-1-yl)-3-methoxy-10-(trifluoromethyl)-3,4-dihydro-2H,6H-[1,4]thiazepino[2,3,4-ij]quinazolin-6-one] the “CAF (% after 1 hour)” value was 61%.
For C=C(F)C(=O)N1[C@H](C)CN(c2nc(=O)n3c4c(c(-c5ccc(F)cc5)c(C(F)(F)F)cc24)SC[C@@H](OC)C3)C[C@@H]1C [Example 1222, (S)-8-((3S,5R)-4-(2-Fluoroacryloyl)-3,5-dimethylpiperazin-1-yl)-11-(4-fluorophenyl)-3-methoxy-10-(trifluoromethyl)-3,4-dihydro-2H,6H-[1,4]thiazepino[2,3,4-ij]quinazolin-6-one], the “CAF (% after 1 hour)” value was 59%.
For C=C(F)C(=O)N1CCN(c2nc(=O)n3c4c(c(-c5ccc(F)cc5)c(C(F)(F)F)cc24)SC[C@@H](OC)C3)CC1 [Example 1223, (S)-8-(4-(2-Fluoroacryloyl)piperazin-1-yl)-11-(4-fluorophenyl)-3-methoxy-10-(trifluoromethyl)-3,4-dihydro-2H,6H-[1,4]thiazepino[2,3,4-ij]quinazolin-6-one], the “CAF (% after 1 hour)” value was 57%.
For C=CC(=O)N1[C@H](C)CN(c2nc(=O)n3c4c(c(-c5ccc(F)cc5)c(C(F)(F)F)cc24)SC[C@@H](NS(C)(=O)=O)C3)C[C@@H]1C [Example 1224, N—((S)-8-((3S,5R)-4-Acryloyl-3,5-dimethylpiperazin-1-yl)-11-(4-fluorophenyl)-6-oxo-10-(trifluoromethyl)-3,4-dihydro-2H,6H-[1,4]thiazepino[2,3,4-ij]quinazolin-3-yl)methanesulfonamide], the “CAF (% after 1 hour)” value was 96%.
C=CC(=O)N1[C@H](C)CN(c2nc(=O)n3c4c(c(-c5ncc(F)cc5F)c(C(F)(F)F)cc24)SC[C@@H](OC)C3)C[C@@H]1C [Example 1225, (3S)-8-((3S,5R)-4-Acryloyl-3,5-dimethylpiperazin-1-yl)-11-(3,5-difluoropyridin-2-yl)-3-methoxy-10-(trifluoromethyl)-3,4-dihydro-2H,6H-[1,4]thiazepino[2,3,4-ij]quinazolin-6-one] was tested, and the “CAF (% after 1 hour)” value was 95%.
For C=CC(=O)N1[C@H](C)CN(c2nc(=O)n3c4c(c(-c5ccc(F)cc5C#N)c(C(F)(F)F)cc24)SC[C@@H](OC)C3)C[C@@H]1C [Example 1226, 2-((3S)-8-((3S,5R)-4-Acryloyl-3,5-dimethylpiperazin-1-yl)-3-methoxy-6-oxo-10-(trifluoromethyl)-3,4-dihydro-2H,6H-[1,4]thiazepino[2,3,4-ij]quinazolin-11-yl)-5-fluorobenzonitrile], the “CAF (% after 1 hour)” value was 81%.
In the case of C=CC(=O)N1[C@H](C)CN(c2nc(=O)n3c4c(c(-c5ccc(F)cc5F)c(C(F)(F)F)cc24)SCCC3)C[C@@H]1C [Example 1227, 8-((3S,5R)-4-acryloyl-3,5-dimethylpiperazin-1-yl)-11-(2,4-difluorophenyl)-10-(trifluoromethyl)-3,4-dihydro-2H,6H-[1,4]thiazepino[2,3,4-ij]quinazolin-6-one], the “CAF (% after 1 hour)” value is reported as 93%.
In the case of [2H]C([2H])=C([2H])C(=O)N1[C@H](C)CN(c2nc(=O)n3c4c(c(-c5ccc(F)cc5)c(C(F)(F)F)cc24)SC[C@@H](OC)C3)C[C@@H]1C [Example 1228, (S)-8-((3S,5R)-4-(acryloyl-d3)-3,5-dimethylpiperazin-1-yl)-11-(4-fluorophenyl)-3-methoxy-10-(trifluoromethyl)-3,4-dihydro-2H,6H-[1,4]thiazepino[2,3,4-ij]quinazolin-6-one], the “CAF (% after 1 hour)” value is reported as 96%.
For [2H]C([2H])([2H])O[C@@H]1CSc2c(-c3ccc(F)cc3)c(C(F)(F)F)cc3c(N4C[C@@H](C)N(C(=O)C=C)[C@@H](C)C4)nc(=O)n(c23)C1 [Example 1229, (S)-8-((3S,5R)-4-acryloyl-3,5-dimethylpiperazin-1-yl)-11-(4-fluorophenyl)-3-(methoxy-d3)-10-(trifluoromethyl)-3,4-dihydro-2H,6H-[1,4]thiazepino[2,3,4-ij]quinazolin-6-one], the “CAF (% after 1 hour)” value was 96%.
For C=CC(=O)N1[C@H](C)CN(c2nc(=O)n3c4c(c(-c5cc(Cl)c(F)cc5F)c(C(F)(F)F)cc24)SC[C@@H](Oc2cc(C)on2)C3)C[C@@H]1C [Example 1230, (3S,11R)-8-((3S,5R)-4-acryloyl-3,5-dimethylpiperazin-1-yl)-11-(5-chloro-2,4-difluorophenyl)-3-((5-methylisoxazol-3-yl)oxy)-10-(trifluoromethyl)-3,4-dihydro-2H,6H-[1,4]thiazepino[2,3,4-ij]quinazolin-6-one], the “CAF (% after 1 hour)” value was 94%.

— patent US20230107642A1 (Erasca, Inc., priority 2020, published 2023)
